Where “and” joins values, the source holds several entries; their conditions need not be identical. Equal values may be shown once. Non-standard residues stand in square brackets, D forms with d. Residues, ends and D or L forms follow the SMILES beside them. *: point of attachment. Paclitaxel(2'-OCO(CH2)3S) = CC(=O)O[C@H]1C(=O)[C@@]2(C)[C@H]([C@H](OC(=O)c3ccccc3)[C@]3(O)C[C@H](OC(=O)[C@H](OC(=O)CCCS*)[C@@H](NC(=O)c4ccccc4)c4ccccc4)C(C)=C1C3(C)C)[C@]1(OC(C)=O)CO[C@@H]1C[C@@H]2O; X1 = O=C(OCCCS*)Oc1ccc2nc(C3=N[C@@H](C(=O)O)CS3)sc2c1
What was measured:
physchem = details: buffer, pH 7.4
Procedure: The stabilities of the conjugates were assayed by measuring their decomposition when incubated in HEPES buffered saline (HBS, pH 7.4) at 37° C. using analytical HPLC. […] At appropriate time points 20 μl of the solutions were removed and analyzed by reverse phase HPLC. The percent decomposition was calculated from the integrated peak areas of the conjugate, the internal standard, and the various decomposition products.

[1] = test system: PC3M-luc prostate cancer cell line stably transfected with luciferase; test: Cellular assay for luciferin release from conjugates (Example 6); assay type: cell-based
Procedure: The PC3M-luc prostate tumor cell line (Jenkins et al., Clin. Exp. Metastasis 20:733 (2003)), was plated at 60,000 cells per well in 96 well, flat bottomed plates twelve hours prior to the assay. […] The cells were washed to remove extracellular luciferin or conjugate, resuspended with the appropriate buffer, and the resultant luminescence measured using a charged coupled device camera and Living Image software (IVIS200, Xenogen Corp., Alameda, Calif.) (see Cao et al., Proc. Natl. Acad. Sci. U.S.A. 101:221 (2004)).

[2] = test system: transgenic (FVB-luc+) mice; test: Bioluminescence after intradermal injection into luciferase transgenic mice; assay type: in vivo
FVB-luc+ mice skin = test: Bioluminescence after topical application to skin of luciferase transgenic mice (Example 7); assay type: in vivo
Description: For imaging assays to assess skin transport, hair was removed from the animals by clipping with a large hair clipper on the right flank. Subsequently, Nair® (NAIR is a registered trademark of Church & Dwight Co., Inc., Princeton N.J., USA for a depilatory cream) was applied for 90 seconds, wiped off, and the animals were washed well with wet paper towels and dried. Five days were allowed for stratum corneum regrowth before the mice were used for imaging.
Formulations for topical application of conjugates were prepared as follows. […] Luminescence was observed over approximately 60 minutes.
In vivo bioluminescence imaging was carried out as follows. Animals were imaged in a dark chamber using a cooled CCD camera (IVIS100 Xenongen Corp.) as previously described 45 and the data were analyzed using LivingImage software (Xenogen Corp.). Data are expressed as photons/ster radian/sec for each region of interest such that the data are not dependent on camera settings, chamber geometry or integration time.
The most reproducible method to evaluate the relative performance of transporters and linkers was to apply a single drop of a solution of each conjugate to the flank of anesthetized FVB-luc+ mice. The drop was allowed to remain in contact with the skin for the duration of the assay during which luminescence from the animal was monitored. […]

OVCA429TP = test: cells
Procedure: (§1) FIG. 12 depicts an assay for GI50 (nM) of 429 Ovarian Cancer Lines, 20 min pulse with indicated compounds. The cells were pulsed for 20 min, washed (×2) and incubated for 72 hr in fresh media. For each compound, three bars are depicted, for 429 cells, 429 T cells, and 429 TP cells (from left to right).
(§2) The cells were pulsed with conjugates administered in PBS (pH=7.4) and Taxol (administered in DMSO) for 20 min. Then the solution was removed, the cells were washed twice and incubated in fresh media for 72 hr. The presence of live cells were measured based on the standard MTS assay.

OVCA429T = test: cells
Procedure: as §1, §2

OVCA429 = test: cells
Procedure: as §1, §2

[3] = 429TP cells (Taxol resistant, unknown mechanism), 20 min pulse, 72 hr
[4] = 429T cells (Taxol resistant, PGP overexpression), 20 min pulse, 72 hr
[5] = 429 cells, 20 min pulse, washed ×2, 72 hr in fresh media, conjugates in PBS pH 7.4, taxol in DMSO

Structure (SMILES): CC(=O)N[C@H](CSSCCOC(=O)Oc1ccc2nc(C3=N[C@@H](C(=O)O)CS3)sc2c1)C(=O)N[C@H](CCCNC(=N)N)C(=O)N[C@H](CCCNC(=N)N)C(=O)N[C@H](CCCNC(=N)N)C(=O)N[C@H](CCCNC(=N)N)C(=O)N[C@H](CCCNC(=N)N)C(=O)N[C@H](CCCNC(=N)N)C(=O)N[C@H](CCCNC(=N)N)C(=O)N[C@H](CCCNC(=N)N)C(N)=O [5a]
- half-life at 0.8 mg/ml (physchem): 3 h

Structure (SMILES): CC(=O)N[C@H](CSSCCCOC(=O)Oc1ccc2nc(C3=N[C@@H](C(=O)O)CS3)sc2c1)C(=O)N[C@H](CCCNC(=N)N)C(=O)N[C@H](CCCNC(=N)N)C(=O)N[C@H](CCCNC(=N)N)C(=O)N[C@H](CCCNC(=N)N)C(=O)N[C@H](CCCNC(=N)N)C(=O)N[C@H](CCCNC(=N)N)C(=O)N[C@H](CCCNC(=N)N)C(=O)N[C@H](CCCNC(=N)N)C(N)=O [5b] (Ac-[dC](X1)[dR][dR][dR][dR][dR][dR][dR][dR]-NH2)
- time for luminescent signal to reach background ([1]; 1 minute pulse, HBS pH 7.4): approximately 1000 seconds
- time over which signal increases after injection ([2]; intradermal injection): 20 min
- area under the curve of bioluminescence ([2]; intradermal injection of 100 uL of 200 nM in HBS pH 7.4, two different animals): 2.54 ×10^10 photons and 2.01 ×10^10 photons
- theoretical amount of luciferin in the injected sample accounted for ([2]; intradermal injection, photons emitted in 60 minutes × 400 molecules per photon): Approximately 80%
- amount of luciferin released in one hour (FVB-luc+ mice skin; 15 μL of 5 mM in 75% PEG 400/25% 200 mM NaOAc pH 6.0): 3.62e-12 mol
- cumulative intradermal concentration of luciferin over one hour (FVB-luc+ mice skin; 15 μL of 5 mM in 75% PEG 400/25% 200 mM NaOAc pH 6.0, skin thickness 0.69 mm): 47 nM
- half-life at 0.8 mg/ml (physchem): 11 h

Structure (SMILES): CC(=O)N[C@H](CSSCCCC(=O)O[C@@H](C(=O)O[C@H]1C[C@@]2(O)[C@@H](OC(=O)c3ccccc3)[C@@H]3[C@]4(OC(C)=O)CO[C@@H]4C[C@H](O)[C@@]3(C)C(=O)[C@H](OC(C)=O)C(=C1C)C2(C)C)[C@@H](NC(=O)c1ccccc1)c1ccccc1)C(=O)N[C@H](CCCNC(=N)N)C(=O)N[C@H](CCCNC(=N)N)C(=O)N[C@H](CCCNC(=N)N)C(=O)N[C@H](CCCNC(=N)N)C(=O)N[C@H](CCCNC(=N)N)C(=O)N[C@H](CCCNC(=N)N)C(=O)N[C@H](CCCNC(=N)N)C(=O)N[C@H](CCCNC(=N)N)C(N)=O [Compound 62, Taxol C2′ Octaarginine Conjugate 62] (Ac-[dC](Paclitaxel(2'-OCO(CH2)3S))[dR][dR][dR][dR][dR][dR][dR][dR]-NH2)
- GI50 (OVCA429TP; [3]): 101 nM
- GI50 (OVCA429T; [4]): 420 nM
- GI50 (OVCA429; [5]): 12 nM

Structure (SMILES): CC(=O)N[C@H](CSSCCCC(=O)O[C@H]1C[C@H]2OC[C@@]2(OC(C)=O)[C@H]2[C@H](OC(=O)c3ccccc3)[C@]3(O)C[C@H](OC(=O)[C@H](O)[C@@H](NC(=O)c4ccccc4)c4ccccc4)C(C)=C([C@@H](OC(C)=O)C(=O)[C@]12C)C3(C)C)C(=O)N[C@H](CCCNC(=N)N)C(=O)N[C@H](CCCNC(=N)N)C(=O)N[C@H](CCCNC(=N)N)C(=O)N[C@H](CCCNC(=N)N)C(=O)N[C@H](CCCNC(=N)N)C(=O)N[C@H](CCCNC(=N)N)C(=O)N[C@H](CCCNC(=N)N)C(=O)N[C@H](CCCNC(=N)N)C(N)=O [Compound 67, Taxol C7 Octaarginine Conjugate 67]
- GI50 (OVCA429TP; [3]): 93 nM
- GI50 (OVCA429T; [4]): 225 nM
- GI50 (OVCA429; [5]): 125 nM

Structure (SMILES): O=C(O)[C@H]1CSC(c2nc3ccc(O)cc3s2)=N1 [luciferin, reference compound]
- change of luminescence in K+HBS ([1]; K+HBS versus HBS, 25 μM luciferin): increased slightly
- area under the curve relative to 200 nM dose ([2]; mouse, in vivo): 10.24%
- area under the curve of bioluminescence ([2]; mouse, in vivo, pH 7.4): 3.02×10^10 photons and 3.11×10^9 photons

Structure (SMILES): CC(=O)O[C@H]1C(=O)[C@@]2(C)[C@H]([C@H](OC(=O)c3ccccc3)[C@]3(O)C[C@H](OC(=O)[C@H](O)[C@@H](NC(=O)c4ccccc4)c4ccccc4)C(C)=C1C3(C)C)[C@]1(OC(C)=O)CO[C@@H]1C[C@@H]2O [taxol, paclitaxel, reference compound]
- GI50 (OVCA429TP; Homo sapiens): 8480 nM
- GI50 (OVCA429T; Homo sapiens): 15800 nM
- GI50 (OVCA429; Homo sapiens, OVCA429, pH 7.4): 147 nM

From patent US8653238B2, “Compositions and methods for transport of molecules with enhanced release properties across biological barriers” (The Board of Trustees of the Leland Stanford Junior …, priority 2006, dated 2014)
